Data: ChEMBL document CHEMBL4680286, “Design, synthesis and antibacterial evaluation of novel oxazolidinone derivatives nitrogen-containing fused heterocyclic moiety” (2021)
Converted amounts (≈) assume the structure as drawn.

Columns and labels:
Assay type in all cases: functional
Staphylococcus aureus [1] = test: Antibacterial activity against methicillin-resistant Staphylococcus aureus
Staphylococcus aureus [2] = test: Antibacterial activity against hospital acquired methicillin-sensitive Staphylococcus aureus clinical isolates
Staphylococcus aureus [3] = test: Antibacterial activity against Staphylococcus aureus ATCC 29213
Enterococcus faecalis [4] = test: Antibacterial activity against hospital acquired linezolid-resistant Enterococcus faecalis clinical isolates
Staphylococcus aureus [5] = test: Antibacterial activity against methicillin-sensitive Staphylococcus aureus
Staphylococcus aureus [6] = test: Antibacterial activity against hospital acquired methicillin-resistant Staphylococcus aureus clinical isolates
Enterococcus faecium [7] = test: Antibacterial activity against hospital acquired vancomycin-resistant Enterococcus faecium clinical isolates
Enterococcus faecium [8] = test: Antibacterial activity against vancomycin-resistant Enterococcus faecium
Enterococcus faecalis [9] = test: Antibacterial activity against linezolid-resistant Enterococcus faecalis
Streptococcus = test: Antibacterial activity against Streptococcus
Staphylococcus = test: Antibacterial activity against Staphylococcus
Enterococcus = test: Antibacterial activity against Enterococcus

## CC(=O)NC[C@H]1CN(c2ccc(N3CCOCC3)c(F)c2)C(=O)O1 [LINEZOLID]
Staphylococcus aureus [1]
  MIC: 1 µg/mL (≈ 2.96 µM)
Staphylococcus aureus [2]
  MIC: 1 µg/mL (≈ 2.96 µM)
Staphylococcus aureus [3]
  MIC: 1 µg/mL (≈ 2.96 µM)
Enterococcus faecalis [4]
  MIC: > 16 µg/mL
Staphylococcus aureus [5]
  MIC: 1 µg/mL (≈ 2.96 µM)
Staphylococcus aureus [6]
  MIC: 1 µg/mL (≈ 2.96 µM)
Enterococcus faecium [7]
  MIC: 1 µg/mL (≈ 2.96 µM)
Enterococcus faecium [8]
  MIC: 2 µg/mL (≈ 5.93 µM)
Enterococcus faecalis [9]
  MIC: > 16 µg/mL

## CC(=O)NC[C@H]1CN(c2ccc(-c3ccc(-c4nnc5cnccn45)cc3)c(F)c2)C(=O)O1
Staphylococcus aureus [1]
  MIC: 1 µg/mL (≈ 2.24 µM)
Staphylococcus aureus [3]
  MIC: 1 µg/mL (≈ 2.24 µM)
Staphylococcus aureus [5]
  MIC: 1 µg/mL (≈ 2.24 µM)
Enterococcus faecium [8]
  MIC: 1 µg/mL (≈ 2.24 µM)
Enterococcus faecalis [9]
  MIC: 1 µg/mL (≈ 2.24 µM)

## CC(=O)NC[C@H]1CN(c2ccc(-c3ccc(-c4nc5n(n4)CCN(C)C5)cc3)c(F)c2)C(=O)O1
Staphylococcus aureus [1]
  MIC: 1 µg/mL (≈ 2.15 µM)
Staphylococcus aureus [3]
  MIC: 1 µg/mL (≈ 2.15 µM)
Staphylococcus aureus [5]
  MIC: 1 µg/mL (≈ 2.15 µM)
Enterococcus faecium [8]
  MIC: 1 µg/mL (≈ 2.15 µM)
Enterococcus faecalis [9]
  MIC: 2 µg/mL (≈ 4.31 µM)

## CC(=O)NC[C@H]1CN(c2ccc(-c3ccc(-c4nc5n(n4)CCNC5)cc3)c(F)c2)C(=O)O1
Staphylococcus aureus [1]
  MIC: 2 µg/mL (≈ 4.44 µM)
Staphylococcus aureus [3]
  MIC: 2 µg/mL (≈ 4.44 µM)
Staphylococcus aureus [5]
  MIC: 1 µg/mL (≈ 2.22 µM)
Enterococcus faecium [8]
  MIC: 1 µg/mL (≈ 2.22 µM)
Enterococcus faecalis [9]
  MIC: 1 µg/mL (≈ 2.22 µM)

## CC(=O)NC[C@H]1CN(c2ccc(-c3ccc(-c4nnc5ccccn45)cc3)c(F)c2)C(=O)O1
Staphylococcus aureus [1]
  MIC: 2 µg/mL (≈ 4.49 µM)
Staphylococcus aureus [3]
  MIC: 2 µg/mL (≈ 4.49 µM)
Staphylococcus aureus [5]
  MIC: 1 µg/mL (≈ 2.24 µM)
Enterococcus faecium [8]
  MIC: 2 µg/mL (≈ 4.49 µM)
Enterococcus faecalis [9]
  MIC: 1 µg/mL (≈ 2.24 µM)

## CC(=O)NC[C@H]1CN(c2ccc(-c3ccc(-c4nc5ccccn5n4)cc3)c(F)c2)C(=O)O1
Staphylococcus aureus [1]
  MIC: 1 µg/mL (≈ 2.24 µM)
Staphylococcus aureus [3]
  MIC: 2 µg/mL (≈ 4.49 µM)
Staphylococcus aureus [5]
  MIC: 2 µg/mL (≈ 4.49 µM)
Enterococcus faecium [8]
  MIC: 0.5 µg/mL (≈ 1.12 µM)
Enterococcus faecalis [9]
  MIC: 1 µg/mL (≈ 2.24 µM)

## CC(=O)NC[C@H]1CN(c2ccc(-c3ccc(CNCc4cnn[nH]4)cc3)c(F)c2)C(=O)O1 [RADEZOLID]
Staphylococcus aureus [1]
  MIC: 0.5 µg/mL (≈ 1.14 µM)
Streptococcus
  MIC: 0.125 µg/mL (≈ 0.285 µM)
Staphylococcus aureus [3]
  MIC: 0.5 µg/mL (≈ 1.14 µM)
Staphylococcus aureus [5]
  MIC: 0.5 µg/mL (≈ 1.14 µM)
Staphylococcus
  MIC: 0.125 µg/mL (≈ 0.285 µM)
Enterococcus faecium [8]
  MIC: 0.5 µg/mL (≈ 1.14 µM)
Enterococcus faecalis [9]
  MIC: 0.5 µg/mL (≈ 1.14 µM)
Enterococcus
  MIC: 0.125 µg/mL (≈ 0.285 µM)

## CC(=O)NC[C@H]1CN(c2ccc(-c3ccc(-c4cc5n(n4)CCNC5)cc3)c(F)c2)C(=O)O1
Staphylococcus aureus [1]
  MIC: 2 µg/mL (≈ 4.45 µM)
Staphylococcus aureus [3]
  MIC: 2 µg/mL (≈ 4.45 µM)
Staphylococcus aureus [5]
  MIC: 2 µg/mL (≈ 4.45 µM)
Enterococcus faecium [8]
  MIC: 0.5 µg/mL (≈ 1.11 µM)
Enterococcus faecalis [9]
  MIC: 2 µg/mL (≈ 4.45 µM)

## CC(=O)NC[C@H]1CN(c2ccc(-c3ccc(-c4cc5n(n4)CCN(C)C5)cc3)c(F)c2)C(=O)O1
Staphylococcus aureus [1]
  MIC: 1 µg/mL (≈ 2.16 µM)
Staphylococcus aureus [3]
  MIC: 1 µg/mL (≈ 2.16 µM)
Staphylococcus aureus [5]
  MIC: 1 µg/mL (≈ 2.16 µM)
Enterococcus faecium [8]
  MIC: 0.5 µg/mL (≈ 1.08 µM)
Enterococcus faecalis [9]
  MIC: 1 µg/mL (≈ 2.16 µM)

## CC(=O)NC[C@H]1CN(c2ccc(-c3ccc(-c4nc5cnccn5n4)cc3)c(F)c2)C(=O)O1
Staphylococcus aureus [1]
  MIC: 0.5 µg/mL (≈ 1.12 µM)
Staphylococcus aureus [2]
  MIC: 0.5 µg/mL (≈ 1.12 µM)
Staphylococcus aureus [3]
  MIC: 0.5 µg/mL (≈ 1.12 µM)
Enterococcus faecalis [4]
  MIC: 0.5 µg/mL (≈ 1.12 µM)
Staphylococcus aureus [5]
  MIC: 0.5 µg/mL (≈ 1.12 µM)
Staphylococcus aureus [6]
  MIC: 0.5 µg/mL (≈ 1.12 µM)
Enterococcus faecium [7]
  MIC: 0.5 µg/mL (≈ 1.12 µM)
Enterococcus faecium [8]
  MIC: 0.5 µg/mL (≈ 1.12 µM)
Enterococcus faecalis [9]
  MIC: 0.5 µg/mL (≈ 1.12 µM)
